Data taken from US20260091026A1, “METHODS OF TREATING INFLAMMATORY DISEASES” (INTERLINE THERAPEUTICS, INC., priority 2023, published 2026).
Like-named read-outs stand apart in the source and are kept apart here.

Tests used:
[1] = target: T1, GST-RIPK2 fusion protein (human RIPK2 amino acids 1-310) (Homo sapiens, UniProt O43353); assay: RIPK2 binding competition assay (TR-FRET, Tracer 199); settings: displacement of Tracer 199 (10 nM), 45 min at 22° C.
T1 construct: made in house; host or cells: baculovirus-infected Sf9 cells
T1 sequence (O43353 1-310): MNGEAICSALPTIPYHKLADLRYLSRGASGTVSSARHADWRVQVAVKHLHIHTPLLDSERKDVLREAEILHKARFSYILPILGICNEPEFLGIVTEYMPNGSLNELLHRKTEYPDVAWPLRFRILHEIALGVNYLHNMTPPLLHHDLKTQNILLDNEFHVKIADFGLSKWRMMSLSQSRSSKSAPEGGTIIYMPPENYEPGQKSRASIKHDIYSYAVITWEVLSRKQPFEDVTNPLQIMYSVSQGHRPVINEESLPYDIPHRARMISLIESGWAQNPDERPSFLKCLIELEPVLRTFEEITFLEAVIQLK
From the text: The ability of selected compounds of Formulas (I) and (II) to inhibit the binding of an Alexa647-labelled ATP-competitive kinase inhibitor to a GST-RIPK2 fusion protein was quantified employing the TR-FRET-based RIPK2 binding competition assay as described in the following paragraphs.
Recombinant fusion protein of N-terminal Glutathione-S-Transferase (GST) and a fragment of human RIPK2 (amino acids 1-310 of accession number 043353), expressed in baculovirus infected Sf9 cells, purified via glutathione affinity chromatography, was used as GST-RIPK2 fusion protein. Tracer 199 from Life Technologies (catalogue no. PR9115B) was used as Alexa647-labelled ATP-competitive kinase inhibitor.
For the assay, 50 nL of a 100-fold concentrated solution of each test compound in DMSO was pipetted into either a black low volume 384-well microtiter plate or a black 1536-well microtiter plate (both Greiner Bio-One, Frickenhausen, Germany), 3 μL solution of Tracer 199 (16.7 nM=>final concentration in 5 μL assay volume is 10 nM) in aqueous assay buffer (25 mM Tris/HCl pH 7.5, 10 mM magnesium chloride (MgCl2), 5 mM β-glycerophosphate, 2.5 mM dithiothreitol (DTT), 0.5 mM ethylene glycol-bis(2-aminoethylether)-N,N,N′,N′-tetraacetic acid (EGTA), 0.5 mM sodium ortho-vanadate, 0.01% (w/v) bovine serum albumin (BSA), 0.005% (w/v) Pluronic F-127 (Sigma)) were added. Then the binding competition was started by the addition of 2 μL of a solution of the GST-RIPK2 fusion protein (2.5 nM=>final conc. in the 5 μL assay volume is 1 nM) and of Anti-GST-Tb (1.25 nM=>final conc. in the 5 μL assay volume is 0.5 nM), a Lumi4®—Tb cryptate-conjugated anti-GST antibody from PerkinElmer (catalogue no 61GSTTAH), in assay buffer.
The resulting mixture was incubated 45 min at 22° C. to allow the formation of a complex between the Tracer 199, the fusion protein and Anti-GST-Tb. Subsequently, the amount of this complex was evaluated by measurement of the resonance energy transfer from the Tb-cryptate to the Tracer 199. Therefore, the fluorescence emissions at 620 nm and 665 nm after excitation at 337 nm were measured in a TR-FRET reader, e.g. a Pherastar FS(BMG Labtechnologies, Offenburg, Germany) or a Viewlux (PerkinElmer). The ratio of the emissions at 665 nm and at 620 nm was taken as the measure of the amount of the complex. The data were normalized (assay reaction without inhibitor=0% activity, all other assay components but no GST-RIPK2 fusion protein=−100% activity).

RIPK2 (KD)/XIAP (BIR2) = target: T2, RIPK2 (KD)/XIAP (BIR2) (Homo sapiens, UniProt O43353); assay: RIPK2-XIAP binding competition PPI assay (TR-FRET); settings: for Emax / PPI Amax: 50 nM of GSK583 = -100% activity; for Emax: read-out: PPI Amax; for IC50: GST-RIPK2 / His-XIAP (BIR2)-avi, 120 min at 23° C.
T2 construct: made in house; host or cells: baculovirus-infected Sf9 cells
T2 sequence (O43353 1-310): as above
In short: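 TR-FRET competition between GST-RIPK2 (aa 1-310, 1 nM) and His-XIAP BIR2-avi (aa 152-231, 25 nM), both Sf9-expressed, detected with anti-His-XL665 and anti-GST-Tb in Tris pH 7.5 buffer with MgCl2, DTT and vanadate. Incubation was 120 min at 23 °C; the 665/520 nm ratio was normalized to no inhibitor (0%) and 50 nM GSK583 (−100%).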

[2] = test system: THP1-Dual cells, NF-κB pathway (SEAP); assay: THP-1 Dual cell SEAP assay (L18-MDP stimulated); format: cell-based; settings: 10 ng/mL L18-MDP, 20-24 h, SEAP readout, read-out: IFNγ THP1 IC50
In short: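 About 25,000 THP1-Dual cells per well were preincubated 30 min with serially diluted compound, then stimulated overnight (20-24 h, 37 °C) with 10 ng/mL L18-MDP (final). NF-κB-driven SEAP in supernatant was read with QUANTI-Blue at OD 620-655 nm after 2 h; % inhibition versus DMSO/L18-MDP wells was fitted by non-linear regression to give IC50.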

Row | Compound | IC50 [1] | Emax (RIPK2 (KD)/XIAP (BIR2)) | IC50 (RIPK2 (KD)/XIAP (BIR2)) | IC50 ([2]; Homo sapiens) | PPI Amax (RIPK2 (KD)/XIAP (BIR2)) | IC50 [2]
1 | COc1cc2ncc(-n3cc(NC(=O)N4CCCC4c4ccccc4)cn3)n2cc1S(=O)(=O)C(C)(C)C (racemic) [Example 177, N-(1-(6-(tert-butylsulfonyl)-7-methoxyimidazo[1,2-a]pyridin-3-yl)-1H-pyrazol-4-yl)-2-phenylpyrrolidine-1-carboxamide] | > 1000 nM | ≥ 80% | > 1000 nM | > 2500 nM | – | –
2 | COc1cc2ncc(-n3cc(N4CCC(c5ccccc5)C4=O)cn3)n2cc1S(=O)(=O)C(C)(C)C (racemic) [Example 180, 1-(1-(6-(tert-butylsulfonyl)-7-methoxyimidazo[1,2-a]pyridin-3-yl)-1H-pyrazol-4-yl)-3-phenylpyrrolidin-2-one] | > 1000 nM | ≥ 80% | > 1000 nM | > 2500 nM | – | –
3 | COc1cc2ncc(-n3cc(NC(=O)N4CCCC4c4ccccc4)cn3)n2cc1S(=O)(=O)C(C)(C)C (single isomer, unassigned) [Example 178, (R)- or (S)-N-(1-(6-(tert-butylsulfonyl)-7-methoxyimidazo[1,2-a]pyridin-3-yl)-1H-pyrazol-4-yl)-2-phenylpyrrolidine-1-carboxamide] | > 1000 nM | – | > 1000 nM | > 2500 nM | C (Amax of 55%>C>30) | –
4 | COc1cc2ncc(-n3cc(NC(=O)N4CCCC4c4ccccc4)cn3)n2cc1S(=O)(=O)C(C)(C)C (single isomer, unassigned) [Example 179, (S)- or (R)-N-(1-(6-(tert-butylsulfonyl)-7-methoxyimidazo[1,2-a]pyridin-3-yl)-1H-pyrazol-4-yl)-2-phenylpyrrolidine-1-carboxamide] | 500 to 1000 nM | – | > 1000 nM | – | A (Amax of ≥80%) | > 2500 nM
5 | COc1cc2ncc(-n3cc(N4CCC(c5ccccc5)C4=O)cn3)n2cc1S(=O)(=O)C(C)(C)C (single isomer, unassigned) [Example 182, (R)- or (S)-1-(1-(6-(tert-butylsulfonyl)-7-methoxyimidazo[1,2-a]pyridin-3-yl)-1H-pyrazol-4-yl)-3-phenylpyrrolidin-2-one] | > 1000 nM | – | > 1000 nM | > 2500 nM | C (Amax of 55%>C>30) | –
6 | COc1cc2ncc(-n3cc(N4CCC(c5ccccc5)C4=O)cn3)n2cc1S(=O)(=O)C(C)(C)C (single isomer, unassigned) [Example 183, (S)- or (R)-1-(1-(6-(tert-butylsulfonyl)-7-methoxy-imidazo[1,2-a]pyridin-3-yl)-1H-pyrazol-4-yl)-3-phenylpyrrolidin-2-one] | > 1000 nM | – | > 1000 nM | – | A (Amax of ≥80%) | > 2500 nM
7 | COc1cc2ncc(-n3cc(C(=O)NCc4ccccc4)cn3)n2cc1S(=O)(=O)C(C)(C)C [Example 1, N-benzyl-1-(6-(tert-butylsulfonyl)-7-methoxyimidazo[1,2-a]pyridin-3-yl)-1H-pyrazole-4-carboxamide] | 200 to 500 nM | ≥ 80% | 100 to 1000 nM | > 2500 nM | – | –
8 | COc1cc2ncc(-n3cc(C(=O)NCc4ccccc4Cl)cn3)n2cc1S(=O)(=O)C(C)(C)C [Example 2, 1-(6-(tert-butylsulfonyl)-7-methoxyimidazo [1,2-a]pyridin-3-yl)-N-(2-chlorobenzyl)-1H-pyrazole-4-carboxamide] | 200 to 500 nM | ≥ 80% | 100 to 1000 nM | > 2500 nM | – | –
9 | COc1cc2ncc(-n3cc(C(=O)NCc4ccccc4)c(C)n3)n2cc1S(=O)(=O)C(C)(C)C [Example 148, N-benzyl-1-(6-(tert-butylsulfonyl)-7-methoxyimidazo[1,2-a]pyridin-3-yl)-3-methyl-1H-pyrazole-4-carboxamide] | – | ≥ 80% | 100 to 1000 nM | > 2500 nM | – | –
10 | COc1cc2ncc(-c3cc(NC(=O)OCc4ccccc4)n(C)n3)n2cc1S(=O)(=O)C(C)(C)C [Example 149] | – | ≥ 80% | 10 to 100 nM | 100 to 500 nM | – | –
11 | COc1cc2ncc(-c3cc(NC(=O)O[C@@H](C)c4ccccc4)n(C)n3)n2cc1S(=O)(=O)C(C)(C)C [Example 150, (S)-1-phenylethyl (3-(6-(tert-butylsulfonyl)-7-methoxyimidazo[1,2-a]pyridin-3-yl)-1-methyl-1H-pyrazol-5-yl)carbamate] | – | ≥ 80% | 100 to 1000 nM | 500 to 2500 nM | – | –
12 | COc1cc2ncc(-c3cc(NC(=O)O[C@H](C)c4ccccc4)n(C)n3)n2cc1S(=O)(=O)C(C)(C)C [Example 151, (R)-1-phenylethyl (3-(6-(tert-butylsulfonyl)-7-methoxyimidazo[1,2-a]pyridin-3-yl)-1-methyl-1H-pyrazol-5-yl)carbamate] | – | ≥ 80% | < 10 nM | < 100 nM | – | –
13 | C[C@H](CO)COc1cc2ncc(-c3cc(NC(=O)Cc4ccccc4Cl)n(C)n3)n2cc1S(=O)(=O)C(C)(C)C [Example 187, (R)-N-(3-(6-(tert-butylsulfonyl)-7-(3-hydroxy-2-methylpropoxy)imidazo [1,2-a]pyridin-3-yl)-1-methyl-1H-pyrazol-5-yl)-2-(2-chlorophenyl)acetamide] | – | ≥ 80% | < 10 nM | 100 to 500 nM | – | –
14 | C[C@@H](CO)COc1cc2ncc(-c3cc(NC(=O)Cc4ccccc4Cl)n(C)n3)n2cc1S(=O)(=O)C(C)(C)C [Example 188, (S)-N-(3-(6-(tert-butylsulfonyl)-7-(3-hydroxy-2-methylpropoxy)imidazo [1,2-a]pyridin-3-yl)-1-methyl-1H-pyrazol-5-yl)-2-(2-chlorophenyl) acetamide] | – | ≥ 80% | < 10 nM | 100 to 500 nM | – | –
15 | CNc1nccn2c(-c3cc(C(=O)NCc4ccccc4)n(C)n3)cnc12 [Example 189, N-benzyl-1-methyl-3-(8-(methylamino)imidazo[1,2-a]pyrazin-3-yl)-1H-pyrazole-5-carboxamide] | – | 55 to 80% | > 1000 nM | > 2500 nM | – | –
16 | CNc1nccn2c(-c3cc(C(=O)N[C@H](C)c4ccccc4)n(C)n3)cnc12 [Example 190, (R)-1-methyl-3-(8-(methylamino)imidazo [1,2-a]pyrazin-3-yl)-N-(1-phenylethyl)-1H-pyrazole-5-carboxamide] | – | 30 to 55% | > 1000 nM | > 2500 nM | – | –
17 | COc1cc2ncnc(-c3cc(C(=O)NCc4ccccc4)n(C)n3)c2cc1S(=O)(=O)C(C)(C)C [Example 191, N-benzyl-3-(6-(tert-butylsulfonyl)-7-methoxyquinazolin-4-yl)-1-methyl-1H-pyrazole-5-carboxamide] | – | ≥ 80% | 100 to 1000 nM | > 2500 nM | – | –
18 | COc1cc2ncnc(-c3cc(C(=O)N[C@H](C)c4ccccc4)n(C)n3)c2cc1S(=O)(=O)C(C)(C)C [Example 192, (R)-3-(6-(tert-butylsulfonyl)-7-methoxyquinazolin-4-yl)-1-methyl-N-(1-phenylethyl)-1H-pyrazole-5-carboxamide] | – | ≥ 80% | 10 to 100 nM | 500 to 2500 nM | – | –
